The values below come from patent US5264209A, “Modified HIL-6” (Kirin-Amgen, Inc., priority 1990, dated 1993).

For series [1], the system named is platelets in peripheral blood. The experiment in a line: In vivo platelet production in mice, once a day for five days (Examples 13 and 16). Also on record: species or system Balb/c mice. The settings on record: sixth day. How it is done: (§1) In Examples 7-10 and 13-17, the PEGylated hIL-6 polypeptides of the present invention were dissolved in PBS containing 0.1% normal mouse serum. The concentration of the solutions was adjusted so that the final volume administered was 100 μl.
The hIL-6 produced in Example 4 or its PEGylated derivatives produced in Examples 11 and 12 were administered subcutaneously to four Balb/c mice (8 weeks old, female) once a day for five days. Control mice were administered with the vehicle. Blood samples were taken on the sixth day and platelets in peripheral blood were counted.
The PEGylated hIL-6 Fr120'-2 was administered to five mice once a day for five days at a dose of 1 μg/mouse and blood samples were taken on the sixth day as described in Example 13.

A short description of series [2]: Acute toxicity (Example 17). The series is classed as in vivo, Balb/c mice. Particulars: for deaths during the ten day period after the administration: 1, 5, or 10 mg/kg s.c.; for acute LD50: s.c., ten day observation, 14400 min. How it is done:
as §1
The acute toxicity of PEGylated hIL-6 was investigated. The hIL-6 of Example 4 or its PEGylated derivatives (Fr45-2, Fr100-2, and Fr120-2), produced in Examples 4, 11, and 12, were administered subcutaneously to five Balb/c mice (6 weeks old, male, 21-23 g weight) at a dose of either 1, 5, or 10 mg/kg weight (as polypeptide).

For series [3] the following is noted: Castell et al. 1988; cited from earlier work.
Where [4] appears, read: Table 6, 1 μg/mouse/injection s.c. once a day for five days.
Where [5] appears, read: Table 6, 10 μg/mouse/injection s.c. once a day for five days.
[6] abbreviates: Table 6, 0.5 μg/mouse/injection s.c. once a day for five days.
Where [7] appears, read: Table 6, 5 μg/mouse/injection s.c. once a day for five days.
The mark [8] stands for this setting: Table 7, 0.1 μg/mouse/injection s.c. once a day for five days.
Setting [9] is: Table 7, 0.5 μg/mouse/injection s.c. once a day for five days.
The mark [10] stands for this setting: Table 7, 1 μg/mouse/injection s.c. once a day for five days.
Where [11] appears, read: Table 7, 5 μg/mouse/injection s.c. once a day for five days.
The mark [12] stands for this setting: Table 7, 10 μg/mouse/injection s.c. once a day for five days.

On to “Fr100-1: fraction of PEG(10000)IL-6, average 5.3 free amino groups per molecule”, for which the figures for the “Number of platelets (% of control)” value in series [1] (setting [4]) and in series [1] (setting [5]) were 100.0 % of control and 211.1 % of control, respectively.

For the substance “Fr100-2: fraction of PEG(10000)IL-6, average 7.4 free amino groups per molecule”, the “Number of platelets (% of control)” value in series [1] (setting [6]) is given as 107.9 % of control; in series [1] (setting [4]), 148.9 % of control; in series [1] (setting [7]), 205.9 % of control; in series [1] (setting [5]), 250.8 % of control. The “deaths during the ten day period after the administration” value in series [2] was “None of the mice was observed to die”. In addition, in series [2], the “acute LD50” value is “over 10 mg/kg weight”.

In the case of “Fr100-3: fraction of PEG(10000)IL-6, average 8.6 free amino groups per molecule”, the “Number of platelets (% of control)” value in series [1] (setting [6]) is given as 113.7 % of control; in series [1] (setting [4]) it was 141.1 % of control; in series [1] (setting [7]) it was 212.7 % of control; in series [1] (setting [5]) it was 204.4 % of control.

Consider “Fr100-4: fraction of PEG(10000)IL-6, average 9.4 free amino groups per molecule”, for which the “Number of platelets (% of control)” value in series [1] (setting [6]) is recorded as 138.7 % of control; in series [1] (setting [4]), 142.5 % of control; in series [1] (setting [7]), 226.5 % of control; in series [1] (setting [5]), 203.2 % of control.

As to “Fr100-5: fraction of PEG(10000)IL-6, average 10.0 free amino groups per molecule”, the “Number of platelets (% of control)” value in series [1] (setting [6]) is 111.3 % of control; in series [1] (setting [4]) it was 142.8 % of control; in series [1] (setting [7]) it was 225.9 % of control; in series [1] (setting [5]), 202.4 % of control.

Take “Fr120-1: fraction of PEG(12000)IL-6, average 5.2 free amino groups per molecule”: the “Number of platelets (% of control)” value in series [1] (setting [8]) is reported as 141.3 % of control; in series [1] (setting [9]), 215.5 % of control; in series [1] (setting [10]), 221.5 % of control; in series [1] (setting [11]), 246.3 % of control; in series [1] (setting [12]), 201.3 % of control.

As for “Fr120-2: fraction of PEG(12000)IL-6, average 7.6 free amino groups per molecule”, the “Number of platelets (% of control)” value in series [1] (setting [8]) was 167.4 % of control; in series [1] (setting [9]), 227.8 % of control; in series [1] (setting [10]), 233.2 % of control; in series [1] (setting [11]) it was 244.3 % of control; in series [1] (setting [12]) it was 213.2 % of control. Besides, the “deaths during the ten day period after the administration” value in series [2] is listed as “None of the mice was observed to die”. In series [2], the “acute LD50” value is recorded as “over 10 mg/kg weight”.

With “Fr120-3: fraction of PEG(12000)IL-6, average 8.7 free amino groups per molecule”, the “Number of platelets (% of control)” value in series [1] (setting [8]) is listed as 170.1 % of control; in series [1] (setting [9]), 205.9 % of control; in series [1] (setting [10]) it was 242.7 % of control; in series [1] (setting [11]), 243.1 % of control; in series [1] (setting [12]), 221.4 % of control.

As to “Fr120-4: fraction of PEG(12000)IL-6, average 9.2 free amino groups per molecule”, the “Number of platelets (% of control)” value is on record as 161.5 % of control in series [1] (setting [8]); 203.4 % of control in series [1] (setting [9]); 221.4 % of control in series [1] (setting [10]); 229.0 % of control in series [1] (setting [11]); 200.4 % of control in series [1] (setting [12]).

As to “Fr120-5: fraction of PEG(12000)IL-6, average 9.8 free amino groups per molecule”, the “Number of platelets (% of control)” value in series [1] (setting [8]) was 154.1 % of control; in series [1] (setting [9]), 191.5 % of control; in series [1] (setting [10]), 225.4 % of control; in series [1] (setting [11]), 224.8 % of control; in series [1] (setting [12]), 235.9 % of control.

On to “IL-6: interleukin-6, multi-functional cytokine”, for which, in series [3], the “in vivo half-life in blood” value is “very short”.
